In patent US20240002388A1, “PYRIMIDINONE COMPOUNDS AND USES THEREOF” (HUTCHISON MEDIPHARMA LIMITED, priority 2020, published 2024) one finds IC50 data, which are given here for 18 compounds.

pIC50: −log10 of the molar value.

In the assay the test system is U937 cell line (human histiocytic lymphoma cell line). Put plainly: U937 cell viability assay (TNF-α + Z-VAD-FMK induced necroptosis). The format is cell-based. The note with it: Homo sapiens, U-937; U937 cells, hTNF-α 0.1 μg/mL + Z-VAD-FMK 50 μM, 20 hours, CellTiter-Glo. The protocol:
U937 cell line (human histiocytic lymphoma cell line): purchased from ATCC (American Type Culture Collection) Cell Bank, cultured in a 5% CO2, 37° C. incubator, and RPMI 1640 medium which contains L-glutamine, 1.5 g/L sodium bicarbonate, 2.383 g/L HEPES solution, 0.11 g/L sodium pyruvate and 4.5 g/L glucose, plus 10% fetal bovine serum (FBS) was used. • RPMI 1640 medium: GIBCO, Cat #A10491-01; • Fetal bovine serum (FBS): GIBCO, Cat #10099-141C; • Dimethyl sulfoxide (DMSO): Sigma, Cat #D2650; • Recombinant Human TNF-alpha Protein (hTNF-α): R&D system, Cat #210-TA-100; • Pan-Caspase inhibitor (Z-VAD-FMK): Selleckchem, Cat #S7023; • CellTiter-Glo 2.0 Cell Viability Assay kit: Promega, Cat #G9242; • Microwell plate reader: Envision, Perkin Elmer; • 96-well plate: Corning, Cat #3917.
The U937 cells at the logarithmic phase were taken out, centrifuged to remove the medium, washed with PRMI 1640 medium containing 1% FBS, and diluted with 1% FBS-containing RPMI 1640 medium to 2.5×10^5 cells/ml, inoculated at 70 μL/well into a 96-well plate, i.e., 1.75×10^4 cells/well. The plate was cultured in a 5% CO2, 37° C. cell incubator. After incubating for 1 hour, the test compound was diluted to the corresponding concentrations using DMSO with 3-fold serial dilution, then the corresponding concentration of DMSO diluted solution was diluted into 1% FBS-containing RPMI 1640 medium, and 10 μL/well of the diluted test compound with different concentrations (final concentration of test compound was 1.0, 0.333, 0.111, 0.037, 0.012, 0.004, 0.0014 and 0.0005 μM, while final concentration of DMSO was 0.3%) or 10 μL/well control solution (3% DMSO) were added to the cell culture system respectively, with the total volume being 80 μL/well; Then 10 μL of Z-VAD-FMK solution diluted with 1% FBS-containing RPMI 1640 medium (final concentration of 50 μM) or 10 μL of control solution (2.5% DMSO) was added to each well, with the total volume being 90 μL/well. The plate was incubated in a 5% CO2, 37° C. cell culture incubator for 1 hour.
After being cultured for 1 hour, 10 μL of human recombinant TNF-α protein diluted with 1% FBS-containing RPMI 1640 medium (final concentration of 0.1 μg/mL) or 10 μL/well control solution (1% FBS-containing RPMI 1640 medium) was added to each well. The plate was incubated in a 5% CO2, 37° C. cell culture incubator for 20 hours.
The cell culture plate was taken out from the incubator, and left to stand at room temperature for 30 minutes. Meanwhile, CellTiter-Glo viability assay kit was put from freezer to room temperature, and 50 μL of CellTiter-Glo reagent was added to all wells, the plate was shaken for 1 minutes, protected from light at room temperature for 10 minutes then read the plate on Envision to get the luminescence signal.
The 96-well plate in the dark was taken out, and the chemiluminescence was determined using the Envision microwell plate reader as the signal value of each well.
The mean signal value of the wells of the mixed solution of recombinant human TNF-alpha protein (final concentration of 0.1 μg/mL) and Pan-Caspase inhibitor (final concentration of 50 μM) was used as the lower value, and the mean signal value of the wells without stimulation was used as the upper value. According to the signal value of each well, the inhibition rate of each concentration of every compound was calculated, and the IC50 value of compound was obtained by Model 205 in XL-Fit 5.3 software (ID Business Solutions Limited).
Inhibition rate %=[(Luminescence readout of treated compound−Luminescence readout of positive control)/(Luminescence readout of negative control−Luminescence readout of positive control)]×100%, wherein
In general terms: Cellular ATP, detected with luciferase, serves as a proxy for viable cell number.
The pIC50 is −log10 of the IC50, conventionally taken in molar units. `CC(C)n1cncc(-c2ccc(C3(NC(=O)c4ncc5cnn(C(C)C6CC6)c5n4)CC3)cc2)c1=O` (racemic) [Compound 59, 1-(1-cyclopropylethyl)-N-(1-(4-(1-i-propyl-6-oxo-1,6-dihydropyrimidin-5-yl)phenyl)cyclopropyl)-1H-pyrazolo[3,4-d]pyrimidine-6-carboxamide]: the pIC50 is 8.52.

Consider `CC(C)n1ncc2cnc(C(=O)NC3(c4ccc(-c5cncn([C@H](C)C(F)(F)F)c5=O)cc4F)CC3)nc21` (stereo in doubt) [Compound 46], for which the pIC50 was 8.70. For the compound `CC(C)n1ncc2cnc(C(=O)NC3(c4ccc(-c5cncn([C@@H](C)C(F)(F)F)c5=O)cc4F)CC3)nc21` (stereo in doubt) [Compound 47], the pIC50 was 8.70.

As to `CC(C)n1ncc2cnc(C(=O)NC3(c4ccc(-c5cncn(C6CCOC6)c5=O)cc4)CC3)nc21` (stereo in doubt) [Compound 80, (R)-1-i-propyl-N-(1-(4-(6-oxo-1-(tetrahydrofuran-3-yl)-1,6-dihydropyrimidin-5-yl)phenyl)cyclopropyl)-1H-pyrazolo[3,4-d]pyrimidine-6-carboxamide], the negative logarithm of the IC50 (pIC50) was 8.05.

On to `CC(C)n1ncc2cnc(C(=O)NC3(c4ccc(-c5cncn(C6CCOC6)c5=O)cc4)CC3)nc21` (stereo in doubt) [Compound 81, (S)-1-i-propyl-N-(1-(4-(6-oxo-1-(tetrahydrofuran-3-yl)-1,6-dihydropyrimidin-5-yl)phenyl)cyclopropyl)-1H-pyrazolo[3,4-d]pyrimidine-6-carboxamide], for which the negative-log IC50 (pIC50) is 8.10. Turning to `CC(C#N)n1cncc(-c2ccc(C3(NC(=O)c4ncc5cnn(C(C)C)c5n4)CC3)cc2)c1=O` (stereo in doubt) [Compound 82, (R)—N-(1-(4-(1-(1-cyanoethyl)-6-oxo-1,6-dihydropyrimidin-5-yl)phenyl)cyclopropyl)-1-i-propyl-1H-pyrazolo[3,4-d]pyrimidine-6-carboxamide], the negative logarithm of the IC50 (pIC50) is 7.74.

As to `CC(C#N)n1cncc(-c2ccc(C3(NC(=O)c4ncc5cnn(C(C)C)c5n4)CC3)cc2)c1=O` (stereo in doubt) [Compound 83, (S)—N-(1-(4-(1-(1-cyanoethyl)-6-oxo-1,6-dihydropyrimidin-5-yl)phenyl)cyclopropyl)-1-i-propyl-1H-pyrazolo[3,4-d]pyrimidine-6-carboxamide], the negative-log IC50 (pIC50) is 7.77. Then `CC(C)n1ncc2cnc(C(=O)NC3(c4ccc(-c5cncn(C)c5=O)cc4)CC3)nc21` [Compound 1, 1-isopropyl-N-(1-(4-(1-methyl-6-oxo-1,6-dihydropyrimidin-5-yl)phenyl)cyclopropyl)-1H-pyrazolo[3,4-d]pyrimidine-6-carboxamide], with 7.68. For `CC(C)n1ncc2cnc(C(=O)NC3(c4ccc(-c5cncn(C)c5=O)cn4)CC3)nc21` [Compound 2], the negative logarithm of the IC50 (pIC50) was 6.77. As to `Cn1cncc(-c2ccc(C3(NC(=O)c4nnc(Cc5ccccc5)[nH]4)CC3)cc2)c1=O` [Compound 3], the pIC50 is 7.68. Turning to `Cn1cncc(-c2ccc(C3(NC(=O)c4ncc5cnn(-c6ccccc6)c5n4)CC3)cc2)c1=O` [Compound 4], the negative logarithm of the IC50 (pIC50) was 7.77. With `Cn1cncc(-c2ccc(C3(NC(=O)c4cc(Cc5ccccc5)on4)CC3)cc2)c1=O` [Compound 5], the pIC50 was 7.62. For `CC(C)Cc1nc(C(=O)NC2(c3ccc(-c4cncn(C)c4=O)cc3)CC2)ncc1Cl` [Compound 6], the pIC50 was 7.68.

On to `Cn1cncc(-c2ccc(C3(NC(=O)c4ncn(Cc5ccccc5)n4)CC3)cc2)c1=O` [Compound 8], for which the negative logarithm of the IC50 (pIC50) is 7.85. Regarding `Cn1cncc(-c2ccc(C3(NC(=O)c4noc(Cc5ccccc5)n4)CC3)cc2)c1=O` [Compound 9], the pIC50 was 7.28. As for `Cn1cncc(-c2ccc(C3(NC(=O)c4ncc(Cc5ccccc5)o4)CC3)cc2)c1=O` [Compound 10], the negative-log IC50 (pIC50) was 8.10. Under `Cn1cncc(-c2ccc(C3(NC(=O)c4nnc(Cc5ccccc5)o4)CC3)cc2)c1=O` [Compound 11] stands 6.86. In the case of `CC(C)n1ncc2cnc(C(=O)NC3(c4ccc(-c5cncn(C6CC6)c5=O)cc4)CC3)nc21` [Compound 12], the pIC50 is 7.74.
